Laboratory results taken from ChEMBL document CHEMBL1201862, “PubChem BioAssay data set” (2004).
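Tested at 5 concentrations; 48 h exposure; 96-well plates; endpoints linearly interpolated, else capped at highest concentration. Here, GI50 denotes the concentration required for 50% inhibition of growth.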 Activity calls are given as the source filed them. Rule as the data show it: active = GI50 up to about 1.1 µM and inactive = higher.

Experiments:
Assay in all cases: NCI tumour cell line growth inhibition, 48 h
786-0 = test system: 786-0
ACHN = test system: ACHN
BT-549 = test system: BT-549
CCRF-CEM = test system: CCRF-CEM
DU-145 = test system: DU-145
HCT-116 = test system: HCT-116
K562 = test system: K562
KM12 = test system: KM12
LOX IMVI = test system: LOX IMVI
MCF7 = test system: MCF7
NCI-H226 = test system: NCI-H226
NCI-H23 = test system: NCI-H23
NCI-H460 = test system: NCI-H460
OVCAR-3 = test system: OVCAR-3
OVCAR-8 = test system: OVCAR-8
RPMI-8226 = test system: RPMI-8226
RXF 393 = test system: RXF 393
SK-MEL-5 = test system: SK-MEL-5
SN12C = test system: SN12C
UACC-62 = test system: UACC-62

Structure (SMILES)	GI50 (786-0)	GI50 (ACHN)	GI50 (BT-549)	GI50 (CCRF-CEM)	GI50 (DU-145)	GI50 (HCT-116)	GI50 (K562)	GI50 (KM12)	GI50 (LOX IMVI)	GI50 (MCF7)	GI50 (NCI-H226)	GI50 (NCI-H23)	GI50 (NCI-H460)	GI50 (OVCAR-3)	GI50 (OVCAR-8)	GI50 (RPMI-8226)	GI50 (RXF 393)	GI50 (SK-MEL-5)	GI50 (SN12C)	GI50 (UACC-62)
N/N=C(\Nc1ccccc1)SCc1ccccc1	> 100 µM (inactive)	> 100 µM (inactive)	> 100 µM (inactive)	> 100 µM (inactive)	> 100 µM (inactive)	> 100 µM (inactive)	> 100 µM (inactive)	> 100 µM (inactive)	> 100 µM (inactive)	> 100 µM (inactive)	> 100 µM (inactive)	> 100 µM (inactive)	> 100 µM (inactive)	> 100 µM (inactive)	> 100 µM (inactive)	> 100 µM (inactive)	> 100 µM (inactive)	> 100 µM (inactive)	> 100 µM (inactive)	> 100 µM (inactive)
Cc1ccc(-c2n[nH]c(=O)[nH]2)cc1	> 100 µM (inactive)	> 100 µM (inactive)	> 100 µM (inactive)	> 100 µM (inactive)	> 100 µM (inactive)	> 100 µM (inactive)	> 100 µM (inactive)	> 100 µM (inactive)	> 100 µM (inactive)	> 100 µM (inactive)	> 100 µM (inactive)	> 100 µM (inactive)	> 100 µM (inactive)	> 100 µM (inactive)	> 100 µM (inactive)	> 100 µM (inactive)	> 100 µM (inactive)	> 100 µM (inactive)	> 100 µM (inactive)	> 100 µM (inactive)
CC(=O)NCCCCN(CCCNC(C)=O)C(=O)CNS(=O)(=O)c1cccc2c(N(C)C)cccc12	> 100 µM (inactive)	> 100 µM (inactive)	> 100 µM (inactive)	> 100 µM (inactive)	> 100 µM (inactive)	> 100 µM (inactive)	> 100 µM (inactive)	–	> 100 µM (inactive)	> 100 µM (inactive)	> 100 µM (inactive)	> 100 µM (inactive)	> 100 µM (inactive)	> 100 µM (inactive)	–	> 100 µM (inactive)	> 100 µM (inactive)	> 100 µM (inactive)	> 100 µM (inactive)	> 100 µM (inactive)
C=C1C(=O)C2=C[C@H]1C[C@H](O)C(=O)[C@]1(C)CCCC(C)(C)[C@H]1C[C@H]2O	0.959 µM (active)	0.452 µM (active)	2.16 µM (inactive)	0.0488 µM (active)	1.77 µM (inactive)	1.63 µM (inactive)	0.215 µM (active)	2.93 µM (inactive)	0.916 µM (active)	0.388 µM (active)	10.5 µM (inactive)	1.63 µM (inactive)	2.88 µM (inactive)	2.02 µM (inactive)	2.33 µM (inactive)	0.235 µM (active)	0.315 µM (active)	–	1.77 µM (inactive)	1.59 µM (inactive)
O=C(c1ccco1)N(C(=S)OCc1ccccn1)c1ccccc1	> 100 µM (inactive)	86.1 µM (inactive)	> 100 µM (inactive)	69.8 µM (inactive)	> 100 µM (inactive)	> 100 µM (inactive)	75.3 µM (inactive)	> 100 µM (inactive)	> 100 µM (inactive)	75.3 µM (inactive)	29.6 µM (inactive)	> 100 µM (inactive)	–	> 100 µM (inactive)	> 100 µM (inactive)	49.3 µM (inactive)	30.9 µM (inactive)	88.9 µM (inactive)	> 100 µM (inactive)	> 100 µM (inactive)
Cc1cc(S(=O)(=O)Nc2nc(N)nc(N3N=CCC3C)n2)c(S)cc1Cl (stereo not given)	> 10 µM (inactive)	> 10 µM (inactive)	> 10 µM (inactive)	> 10 µM (inactive)	> 10 µM (inactive)	> 10 µM (inactive)	> 10 µM (inactive)	> 10 µM (inactive)	> 10 µM (inactive)	> 10 µM (inactive)	> 10 µM (inactive)	> 10 µM (inactive)	> 10 µM (inactive)	> 10 µM (inactive)	> 10 µM (inactive)	> 10 µM (inactive)	> 10 µM (inactive)	> 10 µM (inactive)	> 10 µM (inactive)	–
Cc1cc(-c2nc3ccc(F)cc3s2)ccc1NC(=O)[C@H](C)N	4.66 µM (inactive)	9.33 µM (inactive)	13.7 µM (inactive)	1.64 µM (inactive)	12.7 µM (inactive)	3.28 µM (inactive)	–	3.97 µM (inactive)	1.99 µM (inactive)	< 0.0186 µM (active)	2.7 µM (inactive)	12.9 µM (inactive)	2.14 µM (inactive)	8.59 µM (inactive)	11.6 µM (inactive)	3.11 µM (inactive)	7.91 µM (inactive)	12.9 µM (inactive)	14.8 µM (inactive)	1.88 µM (inactive)
CC1=CC(c2ccccc2)n2c(nc3cc4ccccc4cc32)N1 (stereo not given)	> 100 µM (inactive)	> 100 µM (inactive)	> 100 µM (inactive)	> 100 µM (inactive)	> 100 µM (inactive)	> 100 µM (inactive)	> 100 µM (inactive)	> 100 µM (inactive)	> 100 µM (inactive)	> 100 µM (inactive)	> 100 µM (inactive)	> 100 µM (inactive)	> 100 µM (inactive)	> 100 µM (inactive)	> 100 µM (inactive)	> 100 µM (inactive)	> 100 µM (inactive)	> 100 µM (inactive)	–	> 100 µM (inactive)
Cc1cc2nc3[nH]nc(N)c3nc2cc1C	> 100 µM (inactive)	> 100 µM (inactive)	> 100 µM (inactive)	> 100 µM (inactive)	36.6 µM (inactive)	> 100 µM (inactive)	> 100 µM (inactive)	> 100 µM (inactive)	> 100 µM (inactive)	> 100 µM (inactive)	17.7 µM (inactive)	> 100 µM (inactive)	> 100 µM (inactive)	–	88.7 µM (inactive)	> 100 µM (inactive)	32.3 µM (inactive)	–	> 100 µM (inactive)	> 100 µM (inactive)
C[C@H]1CC[C@@H]2[C@@H](C)[C@H]3[C@H](C[C@H]4[C@@H]5CC=C6C[C@@H](O)CC[C@]6(C)[C@H]5C[C@H](O)[C@]34C)N2C1	> 100 µM (inactive)	> 100 µM (inactive)	> 100 µM (inactive)	–	> 100 µM (inactive)	> 100 µM (inactive)	> 100 µM (inactive)	> 100 µM (inactive)	> 100 µM (inactive)	> 100 µM (inactive)	> 100 µM (inactive)	> 100 µM (inactive)	> 100 µM (inactive)	> 100 µM (inactive)	> 100 µM (inactive)	> 100 µM (inactive)	> 100 µM (inactive)	> 100 µM (inactive)	> 100 µM (inactive)	> 100 µM (inactive)
